Assay results taken from patent US6348309B1, “Process for inactivating viruses in blood and blood products” (priority 1989, dated 2002).
Marks after values point to notes of the source that are not given here.

Legend:
Herpes Simplex = experiment: MB/light virus inactivation in plasma (Example 6, Table VI); type: cell-based; details: illumination 60 min; * production conditions, plastic bag 250-300 ml plasma
coagulation factor V = target: T1, coagulation factor V (Homo sapiens, UniProt P12259); experiment: Coagulation factor activity in human plasma right after MB addition (Example 9); type: biochemical; details: no light
T1 construct: Varying amounts of MB were added to human plasma (2 ml aliquots); from tissue; host or cells: human plasma

Vesicular Stomatitis = type: cell-based
coagulation factor IX [1] = target: T2, coagulation factor IX (Homo sapiens, UniProt P00740); experiment: Coagulation factor activity in human plasma right after MB addition (Example 9); type: biochemical; details: no light
T2 construct: Varying amounts of MB were added to human plasma (2 ml aliquots); from tissue; host or cells: human plasma

Influenza = type: cell-based
coagulation factor IX [2] = target: T2, coagulation factor IX; experiment: Coagulation factor activity in human plasma with MB and light exposure (Example 10); type: biochemical
coagulation factor VIII = target: T3, coagulation factor VIII (Homo sapiens, UniProt P00451); experiment: Coagulation factor activity in human plasma right after MB addition (Example 9); type: biochemical; details: no light
T3 construct: Varying amounts of MB were added to human plasma (2 ml aliquots); from tissue; host or cells: human plasma
T3 sequence (P00451 20-1332 limits assumed): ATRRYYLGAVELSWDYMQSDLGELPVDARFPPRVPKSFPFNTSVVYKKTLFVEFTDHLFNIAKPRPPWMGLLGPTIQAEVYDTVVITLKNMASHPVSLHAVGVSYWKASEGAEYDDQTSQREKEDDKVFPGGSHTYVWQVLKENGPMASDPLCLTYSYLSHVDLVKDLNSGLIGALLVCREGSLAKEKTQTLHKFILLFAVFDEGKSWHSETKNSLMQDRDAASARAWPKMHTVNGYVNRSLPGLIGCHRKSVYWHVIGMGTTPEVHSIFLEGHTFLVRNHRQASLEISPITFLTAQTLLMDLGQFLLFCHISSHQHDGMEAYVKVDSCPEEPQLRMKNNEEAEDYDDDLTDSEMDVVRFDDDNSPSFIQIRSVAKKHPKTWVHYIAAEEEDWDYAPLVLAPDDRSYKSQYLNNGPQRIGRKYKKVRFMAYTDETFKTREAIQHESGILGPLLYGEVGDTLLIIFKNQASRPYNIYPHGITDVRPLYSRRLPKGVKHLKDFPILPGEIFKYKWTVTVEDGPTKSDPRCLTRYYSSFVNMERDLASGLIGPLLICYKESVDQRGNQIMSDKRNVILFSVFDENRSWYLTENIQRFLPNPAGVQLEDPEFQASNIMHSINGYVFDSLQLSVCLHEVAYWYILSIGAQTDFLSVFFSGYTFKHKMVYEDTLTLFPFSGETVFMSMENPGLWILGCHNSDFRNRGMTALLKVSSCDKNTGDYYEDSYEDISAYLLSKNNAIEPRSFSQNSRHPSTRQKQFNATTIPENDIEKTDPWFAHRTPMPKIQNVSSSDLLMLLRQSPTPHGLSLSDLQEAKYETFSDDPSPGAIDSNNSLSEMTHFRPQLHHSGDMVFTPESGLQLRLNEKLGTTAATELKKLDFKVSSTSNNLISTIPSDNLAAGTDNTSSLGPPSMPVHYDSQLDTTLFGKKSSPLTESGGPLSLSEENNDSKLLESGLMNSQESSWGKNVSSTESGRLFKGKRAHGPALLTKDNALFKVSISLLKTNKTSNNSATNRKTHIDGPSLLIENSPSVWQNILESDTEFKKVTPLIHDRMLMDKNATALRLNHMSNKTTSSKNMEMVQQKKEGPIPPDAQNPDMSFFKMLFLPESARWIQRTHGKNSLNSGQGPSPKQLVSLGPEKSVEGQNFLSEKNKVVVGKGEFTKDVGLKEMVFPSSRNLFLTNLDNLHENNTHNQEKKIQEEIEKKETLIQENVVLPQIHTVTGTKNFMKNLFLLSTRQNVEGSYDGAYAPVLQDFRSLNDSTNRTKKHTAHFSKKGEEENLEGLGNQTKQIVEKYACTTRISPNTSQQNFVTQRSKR
T3 sequence (P00451 1668-2351 limits assumed): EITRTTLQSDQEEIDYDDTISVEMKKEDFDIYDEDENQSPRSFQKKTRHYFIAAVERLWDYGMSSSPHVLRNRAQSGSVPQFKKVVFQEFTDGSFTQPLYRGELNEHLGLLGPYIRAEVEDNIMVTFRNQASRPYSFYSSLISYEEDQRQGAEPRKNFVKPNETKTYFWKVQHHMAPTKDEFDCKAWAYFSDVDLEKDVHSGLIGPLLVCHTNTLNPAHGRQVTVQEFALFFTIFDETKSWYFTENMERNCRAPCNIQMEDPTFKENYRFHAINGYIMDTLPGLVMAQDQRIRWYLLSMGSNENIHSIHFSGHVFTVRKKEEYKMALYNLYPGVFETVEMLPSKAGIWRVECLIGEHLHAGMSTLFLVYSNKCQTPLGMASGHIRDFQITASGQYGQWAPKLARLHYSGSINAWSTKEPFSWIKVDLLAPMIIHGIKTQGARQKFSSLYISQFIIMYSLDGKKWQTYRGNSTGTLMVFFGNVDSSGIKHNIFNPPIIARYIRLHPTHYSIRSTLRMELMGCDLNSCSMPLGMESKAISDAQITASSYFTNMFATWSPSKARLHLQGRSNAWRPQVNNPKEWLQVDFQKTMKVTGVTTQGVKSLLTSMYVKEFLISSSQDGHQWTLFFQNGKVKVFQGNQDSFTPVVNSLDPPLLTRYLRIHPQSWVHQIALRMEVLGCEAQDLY

VSV = type: cell-based, vesicular stomatitis virus
[3] = system: vesicular stomatitis virus (VSV); type: cell-based
Sindbis = type: cell-based
factor VIII = target: T4, factor VIII (Homo sapiens, UniProt P00451); experiment: Factor VIII content of plasma after MB and adsorbing agent (Example 14); type: biochemical; details: fresh plasma + MB 10 μM, no adsorbing agent
T4 construct: MB was added to 250 ml fresh plasma; from tissue; host or cells: fresh plasma

T2 sequence (P00740 47-461): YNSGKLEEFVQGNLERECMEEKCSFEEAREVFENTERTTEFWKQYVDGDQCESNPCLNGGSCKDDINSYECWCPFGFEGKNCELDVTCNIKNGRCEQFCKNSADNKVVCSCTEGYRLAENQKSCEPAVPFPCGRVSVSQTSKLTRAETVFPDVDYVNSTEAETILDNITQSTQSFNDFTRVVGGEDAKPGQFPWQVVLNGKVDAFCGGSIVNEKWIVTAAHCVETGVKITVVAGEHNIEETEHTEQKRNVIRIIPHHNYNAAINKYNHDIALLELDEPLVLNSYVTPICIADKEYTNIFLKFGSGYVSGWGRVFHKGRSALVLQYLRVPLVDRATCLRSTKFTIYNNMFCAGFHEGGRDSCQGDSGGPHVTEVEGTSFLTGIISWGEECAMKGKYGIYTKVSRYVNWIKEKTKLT
T1 sequence (P12259 29-2224): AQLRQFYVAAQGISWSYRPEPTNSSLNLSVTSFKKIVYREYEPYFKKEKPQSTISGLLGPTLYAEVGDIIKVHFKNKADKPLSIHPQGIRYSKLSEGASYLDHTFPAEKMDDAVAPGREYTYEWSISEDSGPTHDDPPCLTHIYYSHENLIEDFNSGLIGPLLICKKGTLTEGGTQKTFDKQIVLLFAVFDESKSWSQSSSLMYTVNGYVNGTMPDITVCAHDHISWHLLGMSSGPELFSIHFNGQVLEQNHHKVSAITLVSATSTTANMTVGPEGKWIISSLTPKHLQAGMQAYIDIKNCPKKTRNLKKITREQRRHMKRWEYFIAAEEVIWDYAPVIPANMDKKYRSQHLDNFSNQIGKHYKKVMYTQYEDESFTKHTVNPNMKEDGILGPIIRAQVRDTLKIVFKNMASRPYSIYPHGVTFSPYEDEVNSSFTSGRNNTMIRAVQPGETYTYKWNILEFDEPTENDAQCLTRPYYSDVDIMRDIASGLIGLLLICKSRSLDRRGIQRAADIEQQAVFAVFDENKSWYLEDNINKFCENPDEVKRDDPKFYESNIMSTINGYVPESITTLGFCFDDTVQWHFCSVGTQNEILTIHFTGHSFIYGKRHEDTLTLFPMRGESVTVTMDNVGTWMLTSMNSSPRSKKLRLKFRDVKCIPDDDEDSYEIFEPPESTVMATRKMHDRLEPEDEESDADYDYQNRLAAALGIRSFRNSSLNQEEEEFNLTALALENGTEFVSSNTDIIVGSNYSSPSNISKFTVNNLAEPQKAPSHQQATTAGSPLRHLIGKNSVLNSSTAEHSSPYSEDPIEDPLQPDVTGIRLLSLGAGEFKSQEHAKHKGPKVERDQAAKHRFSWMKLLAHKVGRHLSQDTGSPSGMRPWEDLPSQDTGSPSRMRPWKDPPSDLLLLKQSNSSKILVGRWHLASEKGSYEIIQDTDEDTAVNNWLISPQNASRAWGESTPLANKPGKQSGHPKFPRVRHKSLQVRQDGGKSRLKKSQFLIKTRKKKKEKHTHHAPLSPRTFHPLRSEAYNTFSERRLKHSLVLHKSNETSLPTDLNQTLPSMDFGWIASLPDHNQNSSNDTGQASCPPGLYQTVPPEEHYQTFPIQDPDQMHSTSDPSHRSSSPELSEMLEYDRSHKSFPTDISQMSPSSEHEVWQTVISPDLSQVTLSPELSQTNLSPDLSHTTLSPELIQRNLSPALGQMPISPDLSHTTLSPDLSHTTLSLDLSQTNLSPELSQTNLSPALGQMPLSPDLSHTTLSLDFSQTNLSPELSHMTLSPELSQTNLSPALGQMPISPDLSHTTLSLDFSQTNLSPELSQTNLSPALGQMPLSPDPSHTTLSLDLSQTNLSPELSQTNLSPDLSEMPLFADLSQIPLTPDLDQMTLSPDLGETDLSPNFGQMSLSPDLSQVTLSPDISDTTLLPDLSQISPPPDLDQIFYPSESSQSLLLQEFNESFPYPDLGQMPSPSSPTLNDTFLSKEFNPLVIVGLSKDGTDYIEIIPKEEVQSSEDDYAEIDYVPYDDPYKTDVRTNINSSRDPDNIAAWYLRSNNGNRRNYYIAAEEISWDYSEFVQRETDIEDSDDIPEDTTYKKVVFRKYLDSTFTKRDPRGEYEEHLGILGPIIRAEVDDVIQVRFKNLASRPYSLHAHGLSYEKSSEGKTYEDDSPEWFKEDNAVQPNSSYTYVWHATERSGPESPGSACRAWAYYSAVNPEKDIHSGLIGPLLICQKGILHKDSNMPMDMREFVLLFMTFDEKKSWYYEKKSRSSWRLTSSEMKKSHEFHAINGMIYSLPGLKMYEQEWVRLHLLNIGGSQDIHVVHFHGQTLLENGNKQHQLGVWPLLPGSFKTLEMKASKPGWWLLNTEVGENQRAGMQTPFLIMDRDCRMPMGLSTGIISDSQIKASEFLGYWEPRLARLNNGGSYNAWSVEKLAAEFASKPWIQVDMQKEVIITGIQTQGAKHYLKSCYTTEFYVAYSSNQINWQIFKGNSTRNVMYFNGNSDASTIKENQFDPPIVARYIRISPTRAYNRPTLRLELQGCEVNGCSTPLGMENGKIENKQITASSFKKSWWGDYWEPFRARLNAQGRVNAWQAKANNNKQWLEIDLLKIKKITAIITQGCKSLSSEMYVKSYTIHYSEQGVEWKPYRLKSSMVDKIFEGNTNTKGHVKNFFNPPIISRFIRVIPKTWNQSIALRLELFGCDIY

CN(C)c1ccc2nc3ccc(=[N+](C)C)cc-3sc2c1 [MB, methylene blue]
Inactivation Rate (Herpes Simplex): >5.50 * log10 TCID50
Factor V (coagulation factor V; Methylene Blue 1 μM): 0.76 E/ml
Factor V (coagulation factor V; Methylene Blue 2.5 μM): 0.78 E/ml
Factor V (coagulation factor V; Methylene Blue 5 μM): 0.74 E/ml
Factor V (coagulation factor V; Methylene Blue 10 μM): 0.54 E/ml
Factor V (coagulation factor V; Methylene Blue 20 μM): 0.44 E/ml
MB concentration from which factor V activity is inhibited (coagulation factor V): about 10 μM
Inactivation Rate (Vesicular Stomatitis): >4.89 * log10 TCID50
Factor IX (coagulation factor IX [1]; Methylene Blue 1 μM): 1.9 E/ml
Factor IX (coagulation factor IX [1]; Methylene Blue 2.5 μM): 1.6 E/ml
Factor IX (coagulation factor IX [1]; Methylene Blue 5 μM): 1.45 E/ml
Factor IX (coagulation factor IX [1]; Methylene Blue 10 μM): 1.20 E/ml
Factor IX (coagulation factor IX [1]; Methylene Blue 20 μM): 1.10 E/ml
MB concentration from which factor IX activity is inhibited (coagulation factor IX [1]): 2.5 µM
Inactivation Rate (Influenza): 5.10 log10 TCID50
Factor IX (coagulation factor IX [2]; light exposure 0 h, MB 1 μM): 1.20 E/ml
Factor IX (coagulation factor IX [2]; light exposure 0 h, MB 2.5 μM): 0.46 E/ml
Factor IX (coagulation factor IX [2]; light exposure 0 h, MB 10 μM): 0.44 E/ml
Factor IX (coagulation factor IX [2]; light exposure 1 h, MB 1 μM): 0.92 E/ml
Factor IX (coagulation factor IX [2]; light exposure 1 h, MB 2.5 μM): 0.82 E/ml
Factor IX (coagulation factor IX [2]; light exposure 1 h, MB 10 μM): 0.68 E/ml
Factor IX (coagulation factor IX [2]; light exposure 2 h, MB 1 μM): 0.90 E/ml
Factor IX (coagulation factor IX [2]; light exposure 2 h, MB 2.5 μM): 0.72 E/ml
Factor IX (coagulation factor IX [2]; light exposure 2 h, MB 10 μM): 0.74 E/ml
Factor IX (coagulation factor IX [2]; light exposure 4 h, MB 1 μM): 0.94 E/ml
Factor IX (coagulation factor IX [2]; light exposure 4 h, MB 2.5 μM): 0.82 E/ml
Factor IX (coagulation factor IX [2]; light exposure 4 h, MB 10 μM): 0.64 E/ml
Factor VIII (coagulation factor VIII; Methylene Blue 1 μM): 0.41 E/ml
Factor VIII (coagulation factor VIII; Methylene Blue 2.5 μM): 0.41 E/ml
Factor VIII (coagulation factor VIII; Methylene Blue 5 μM): 0.38 E/ml
Factor VIII (coagulation factor VIII; Methylene Blue 10 μM): 0.35 E/ml
Factor VIII (coagulation factor VIII; Methylene Blue 20 μM): 0.28 E/ml
MB concentration from which factor VIII activity is inhibited (coagulation factor VIII): about 10 μM
reduction of infectious titer of VSV (VSV): more than 5 log10-steps
reduction of infectious titer of VSV by irradiation [3]: more than 6 log10
Inactivation Rate (Sindbis): >9.73 log10 TCID50
Factor VIII (factor VIII): 0.42 U/ml
